These results are taken from patent US6025378A, “Bicyclic heterocyclic compounds” (Bayer Aktiengesellschaft, priority 1995, dated 2000).

In one test the test system is ApoB-100-associated lipoproteins released from HepG2 cells. Put plainly: Inhibition of the release of ApoB-100-associated lipoproteins from cultured hepatic HepG2 cells (immunoassay for human LDL). Type of test: cell-based. The following applies: HepG2 cells; culture supernatant; absorption at 450 nm inhibited by 50% vs solvent control; read-out: Apo B IC50. Here is the method:
1. Inhibition of the Release of ApoB-100-associated Lipoproteins
The test for detection of the inhibition of the release of ApoB-100-associated lipoproteins from hepatic cells was carried out in vitro with cultured hepatic cells, preferably with cells of the human line HepG2. These cells are cultured under standard conditions in medium for culture of eukaryotic cells, preferably in RPMI 1640 with 10% foetal calf serum. HepG2 cells synthesize and secrete into the culture supernatant ApoB-100-associated lipoprotein particles, which are in principle built up similarly to the VLDL and LDL particles which are to be found in plasma.
These particles can be detected with an immunoassay for human LDL. This immunoassay is carried out with antibodies which have been induced against human LDL in rabbits under standard conditions. The anti-LDL antibodies (rab-anti-LDL-Ab) were purified by affinity chromatography on an immunosorbent with human LDL. These purified rab-anti-LDL-Ab are adsorbed onto the surface of plastic. This adsorption is expediently carried out on the plastic surface of microtiter plates with 96 wells, preferably on MaxiSorp plates. If ApoB-100-associated particles are present in the supernatant of Hep-G2 cells, these can bond to the insolubilized rab-anti-LDL-Ab, and an immune complex bonded to the plastic surface is formed. Non-bonded proteins are removed by washing The immune complex on the plastic source is detected with monoclonal antibodies, which have been induced against human LDL and purified under standard conditions. These antibodies were conjugated with the enzyme peroxidase. Peroxidase converts the colourless substrate TMB into a coloured product in the presence of H2 O2. After acidification of the reaction mixture with H2 SO4, the specific absorption of light is determined at 450 nm, this being a measure of the amount of ApoB-100-associated particles wich had been secreted by the HepG2 cells into the culture supernatant.
The IC50 value indicates the concentration of substance at which the absorption of light is inhibited by 50% compared with the control (solvent control without the substance).
By IC50 is commonly meant the point on the concentration scale where inhibition reaches its midpoint. With `CSc1nc2ccccc2n1Cc1ccc(C(C(=O)N[C@@H](CO)c2ccccc2)C2CCCC2)cc1` (single isomer, unassigned) [Example 3], the IC50 stood at 11.6 nM.

Regarding `CSc1nc2ccccc2n1Cc1ccc(C(C(=O)N[C@@H](CO)c2ccccc2)C2CCCC2)cc1` (single isomer, unassigned) [Example 4], the half-inhibitory concentration (IC50) was 298 nM.

Consider `CSc1nc2ccccc2n1Cc1ccc(C(C(=O)N[C@@H](CO)c2ccccc2)C2CCCCCC2)cc1` (single isomer, unassigned) [Example 6], for which the IC50 was found to be 8 nM.

Consider `CSc1nc2ccccc2n1Cc1ccc(C(C(=O)N[C@@H](CO)c2ccccc2)C2CCCCCC2)cc1` (single isomer, unassigned) [Example 7], for which the IC50 was found to be 150 nM.

For `O=C(N[C@@H](CO)c1ccccc1)C(c1ccc(Cn2c(SCc3ccccc3)nc3ccccc32)cc1)C1CCCC1` (single isomer, unassigned) [Example 13], the IC50 came to 14.3 nM.

With `O=C(CSc1nc2ccccc2n1Cc1ccc(C(C(=O)N[C@@H](CO)c2ccccc2)C2CCCC2)cc1)c1ccccc1` (single isomer, unassigned) [Example 18], the concentration for half-maximal inhibition (IC50) came out at 930 nM.

Regarding `O=C(CSc1nc2ccccc2n1Cc1ccc(C(C(=O)N[C@@H](CO)c2ccccc2)C2CCCC2)cc1)c1ccccc1` (single isomer, unassigned) [Example 19], the IC50 was determined as 388 nM.

As to `Cc1cc2nc(C(F)(F)F)n(Cc3ccc(C(C(=O)N[C@@H](CO)c4ccccc4)C4CCCC4)cc3)c2cc1C` (single isomer, unassigned) [Example 23], the IC50 is 147 nM.

On to `Cc1cc2nc(C(F)(F)F)n(Cc3ccc(C(C(=O)N[C@@H](CO)c4ccccc4)C4CCCC4)cc3)c2cc1C` (single isomer, unassigned) [Example 24], for which the IC50 worked out at 16.3 nM.

`O=C(N[C@@H](CO)c1ccccc1)C(c1ccc(Cn2c(-c3cscn3)nc3ccccc32)cc1)C1CCCC1` (single isomer, unassigned) [Example 26]: the half-inhibitory concentration (IC50) is 4.5 nM.

For the molecule `O=C(N[C@@H](CO)c1ccccc1)C(c1ccc(Cn2c(-c3cscn3)nc3ccccc32)cc1)C1CCCC1` (single isomer, unassigned) [Example 27], the 50% inhibitory concentration (IC50) is 90.9 nM.

As to `O=C(N[C@@H](CO)c1ccccc1)C(c1ccc(Cn2c(-c3cscn3)nc3ccccc32)cc1)C1CCCCCC1` (single isomer, unassigned) [Example 30], the IC50 came to 112 nM.

In the case of `O=C(N[C@@H](CO)c1ccccc1)C(c1ccc(Cn2c(-c3cscn3)nc3ccccc32)cc1)C1CCCCCC1` (single isomer, unassigned) [Example 31], the half-maximal inhibitory concentration (IC50) stood at 7.3 nM.

With `Cc1nc(-c2nc3ccccc3n2Cc2ccc(C(C(=O)N[C@@H](CO)c3ccccc3)C3CCCC3)cc2)cs1` (single isomer, unassigned) [Example 34], the IC50 was found to be 26.6 nM.

As to `Cc1nc(-c2nc3ccccc3n2Cc2ccc(C(C(=O)N[C@@H](CO)c3ccccc3)C3CCCC3)cc2)cs1` (single isomer, unassigned) [Example 35], the concentration for half-maximal inhibition (IC50) came to 11.2 nM.

Still in this test, the particulars now being: Homo sapiens, HepG2, HepG2 cells; culture supernatant; absorption at 450 nm inhibited by 50% vs solvent control; read-out: Apo B IC50.
`C[S+]([O-])c1nc2ccccc2n1Cc1ccc(C(C(=O)N[C@@H](CO)c2ccccc2)C2CCCCCC2)cc1` (mixture of isomers) [Example 79, 2-(R/S)-Cycloheptyl-N-(2-hydroxy-1-(R)-phenylethyl)-2-[4-(2-methyl-(R/S)-sulphinyl-benzimidazol-1-ylmethyl)phenyl]acetamide]: the concentration for half-maximal inhibition (IC50) amounted to 15.2 nM.

`O=C(N[C@@H](CO)c1ccccc1)C(c1ccc(Cn2c(SCc3ccccc3)nc3ccccc32)cc1)C1CCCC1` (single isomer, unassigned) [Example 12]: the half-inhibitory concentration (IC50) was 12.6 nM.

Turning to `Cc1nc2ccccc2c(=O)n1Cc1ccc(C(C(=O)N[C@@H](CO)c2ccccc2)C2CCCC2)cc1` (stereo partly drawn) [Example 1, 2-Cyclopentyl-N-(2-hydroxy-1-(R)-phenylethyl)-2-[4-(2-methyl-4-oxo-4H-quinazolin-3-yl-methyl)phenyl]acetamide], the IC50 amounted to 44.4 nM.

As to `CSc1nc2ccccc2n1Cc1ccc(C(C(=O)N[C@@H](CO)c2ccccc2)C2CCCC2)cc1` (stereo partly drawn) [Example 2], the concentration for half-maximal inhibition (IC50) is 38.1 nM.

`CSc1nc2ccccc2n1Cc1ccc(C(C(=O)N[C@@H](CO)c2ccccc2)C2CCCCCC2)cc1` (stereo partly drawn) [Example 5]: the IC50 came to 36 nM.

Consider `CSc1nc2cc(C)c(C)cc2n1Cc1ccc(C(C(=O)N[C@@H](CO)c2ccccc2)C2CCCC2)cc1` (stereo partly drawn) [Example 8], for which the IC50 was 4.7 nM.

With `CCSc1nc2ccccc2n1Cc1ccc(C(C(=O)N[C@@H](CO)c2ccccc2)C2CCCC2)cc1` (stereo partly drawn) [Example 9], the 50% inhibitory concentration (IC50) came out at 2.8 nM.

Consider `C=CCSc1nc2ccccc2n1Cc1ccc(C(C(=O)N[C@@H](CO)c2ccccc2)C2CCCC2)cc1` (stereo partly drawn) [Example 10], for which the IC50 was 9.5 nM.

With `O=C(N[C@@H](CO)c1ccccc1)C(c1ccc(Cn2c(SCc3ccccc3)nc3ccccc32)cc1)C1CCCC1` (stereo partly drawn) [Example 11], the IC50 is 4.7 nM.

As for `O=C(N[C@@H](CO)c1ccccc1)C(c1ccc(Cn2c(SCc3c(Cl)cccc3Cl)nc3ccccc32)cc1)C1CCCC1` (stereo partly drawn) [Example 14], the IC50 is 130 nM.

For the molecule `O=C(N[C@@H](CO)c1ccccc1)C(c1ccc(Cn2c(Cc3ccccc3)nc3ccccc32)cc1)C1CCCC1` (stereo partly drawn) [Example 20], the IC50 was 248 nM.

Turning to `O=C(N[C@@H](CO)c1ccccc1)C(c1ccc(Cn2c(-c3cscn3)nc3ccccc32)cc1)C1CCCC1` (stereo partly drawn) [Example 25], the half-maximal inhibitory concentration (IC50) was 7.3 nM.

Regarding `O=C(N[C@@H](CO)c1ccccc1)C(c1ccc(Cn2c(-c3cscn3)nc3ccccc32)cc1)C1CCCCC1` (stereo partly drawn) [Example 28], the IC50 was determined as 27.9 nM.

Consider `O=C(N[C@@H](CO)c1ccccc1)C(c1ccc(Cn2c(-c3cscn3)nc3ccccc32)cc1)C1CCCCCC1` (stereo partly drawn) [Example 29], for which the IC50 amounted to 9.3 nM.

Regarding `O=C(NCc1ccccc1)C(c1ccc(Cn2c(-c3cscn3)nc3ccccc32)cc1)C1CCCCCC1` (stereo not drawn) [Example 32], the IC50 stood at 5.3 nM.

As to `Cc1nc(-c2nc3ccccc3n2Cc2ccc(C(C(=O)N[C@@H](CO)c3ccccc3)C3CCCC3)cc2)cs1` (stereo partly drawn) [Example 33], the IC50 turned out to be 5.3 nM.

`O=C(N[C@@H](CO)c1ccccc1)C(c1ccc(Cn2c(-c3csc(-c4ccccc4)n3)nc3ccccc32)cc1)C1CCCC1` (stereo partly drawn) [Example 36]: the 50% inhibitory concentration (IC50) stood at 9.1 nM.

In the case of `O=C(N[C@@H](CO)c1ccccc1)C(c1ccc(Cn2c(-c3ccsc3)nc3ccccc32)cc1)C1CCCC1` (stereo partly drawn) [Example 37], the IC50 was 3.6 nM.

As for `Cc1ccc2c(nc(-c3ccsc3)n2Cc2ccc(C(C(=O)N[C@@H](CO)c3ccccc3)C3CCCC3)cc2)c1C` (stereo partly drawn) [Example 38], the half-inhibitory concentration (IC50) came out at 36.3 nM.

As for `O=C(N[C@@H](CO)c1ccccc1)C(c1ccc(Cn2c(-c3cccs3)nc3ccccc32)cc1)C1CCCC1` (stereo partly drawn) [Example 39], the IC50 stood at 81.7 nM.

In the case of `Cc1ccc2c(nc(-c3cccs3)n2Cc2ccc(C(C(=O)N[C@@H](CO)c3ccccc3)C3CCCC3)cc2)c1C` (stereo partly drawn) [Example 40], the IC50 came out at 69 nM.

On to `O=C(N[C@@H](CO)c1ccccc1)C(c1ccc(Cn2c(-c3cc4ccccc4s3)nc3ccccc32)cc1)C1CCCC1` (stereo partly drawn) [Example 41], for which the half-inhibitory concentration (IC50) was 10.6 nM.

Regarding `O=C(N[C@@H](CO)c1ccccc1)C(c1ccc(Cn2c(-c3ccccn3)nc3ccccc32)cc1)C1CCCC1` (stereo partly drawn) [Example 44], the half-inhibitory concentration (IC50) came out at 11.3 nM.

Regarding `O=C(N[C@@H](CO)c1ccccc1)C(c1ccc(Cn2c(-c3ccccn3)nc3ccccc32)cc1)C1CCCCCC1` (stereo partly drawn) [Example 47], the 50% inhibitory concentration (IC50) is 18.8 nM.
